Source: patent US7132252B2, “Methods for detecting the interaction of compounds with cytochrome P450 using optical molecular sensors” (Invitrogen Corporation, priority 1998, dated 2006)
Several values for one entry are separate records, joined by “and”; a condition that tells them apart may be missing. Equal values may be shown once.

Experiments:
[1] = Stability of substrate stock solution; format: physicochemical; conditions: 10 mM in acetonitrile, stored at 4° C. in the dark
Procedure: Substrate stock solutions were stable when stored at 4° C. in the dark. 7-Hydroxy-4trifluoromethylcoumarin dye standard was prepared at 1 mM in DMSO. […] Control wells receive the appropriate inhibition controls for each isozyme. Also, inhibitors are added to wells that contain the dye standards to permit addition of substrate and enzyme to all wells of the plate. • 2. […] 30 μl/well Enzyme/Recycling System buffer was added.

[2] = biological target: T1, CYP2C9 (Homo sapiens, UniProt P11712); experiment: Kinetic properties of fluorogenic substrates with CYP 2C9; format: biochemical; conditions: for v (1.25 uM): turnover rate at 1.25 uM substrate; for v (10 uM): turnover rate at 10 uM substrate
[3] = biological target: T2, CYP2D6 (Homo sapiens, UniProt P10635); experiment: Fluorescence signal from enzymatic metabolism over reagent addition background, CYP2D6; format: biochemical; conditions: MOBFC vs AMMC (Gentest) (FIG. 10)
Procedure: (§1) The assays were performed in a 96-well plate at room temperature and at a volume of 100 μl/well. […] (See Table 11.) The enzyme was made up in the appropriate K+ phosphate buffer at 10× and 10 μl/well was-added to the appropriate wells. (See Table 11.) The plate was read at 3 minute intervals for 12 minutes to obtain a background fluorescence levels. Readings were briefly interrupted to allow for the addition of 10 μl of 10×NADP+ in K+ phosphate buffer to each well. (See Table 11.) The readings were resumed at 3 minute intervals for another 12 minutes. […] To permit quantitative comparison between sensors that were or would be metabolized to yield fluorescent products of differing optical properties, the signal intensity corresponding to each well was normalized by division with the initial signal intensity (wells containing enzyme and buffer). […] The later increase in signal, approximately four minutes after the second addition and at later time points, is believed to be due to the enzymatic conversion of the substrate to the product. […] [table]

[4] = biological target: T2, CYP2D6; experiment: Kinetic properties of fluorogenic substrates with CYP 2D6; format: biochemical
Text: (§2) (respectively, MFC and MR).

[5] = biological target: T3, CYP3A4 (Homo sapiens, UniProt P08684); experiment: Kinetic properties of fluorogenic substrates with CYP 3A4; format: biochemical; conditions: for v (1.25 uM): turnover rate at 1.25 uM substrate; for v (10 uM): turnover rate at 10 uM substrate
Text: For further understanding these terms in the context of this invention, attention is directed to FIG. 4 and the analysis of FIG. 4.
as §2

[6] = biological target: T4, CYP2C19 (Homo sapiens, UniProt P33261); experiment: Kinetic properties of fluorogenic substrates with CYP 2C19; format: biochemical; conditions: for v (1.25 uM): turnover rate at 1.25 uM substrate; for v (1.25 uM) / v (10 uM): — = too low to quantify; for v (10 uM): turnover rate at 10 uM substrate
[7] = biological target: T4, CYP2C19; experiment: Fluorescence signal from enzymatic metabolism over reagent addition background, CYP2C19; format: biochemical; conditions: EOMCC vs CEC (FIG. 12)
Procedure: as §1

[8] = biological target: T5, CYP 1A2 (Homo sapiens, UniProt P05177); experiment: Kinetic properties of fluorogenic substrates with CYP 1A2; format: biochemical
T5 sequence (P05177 1-516): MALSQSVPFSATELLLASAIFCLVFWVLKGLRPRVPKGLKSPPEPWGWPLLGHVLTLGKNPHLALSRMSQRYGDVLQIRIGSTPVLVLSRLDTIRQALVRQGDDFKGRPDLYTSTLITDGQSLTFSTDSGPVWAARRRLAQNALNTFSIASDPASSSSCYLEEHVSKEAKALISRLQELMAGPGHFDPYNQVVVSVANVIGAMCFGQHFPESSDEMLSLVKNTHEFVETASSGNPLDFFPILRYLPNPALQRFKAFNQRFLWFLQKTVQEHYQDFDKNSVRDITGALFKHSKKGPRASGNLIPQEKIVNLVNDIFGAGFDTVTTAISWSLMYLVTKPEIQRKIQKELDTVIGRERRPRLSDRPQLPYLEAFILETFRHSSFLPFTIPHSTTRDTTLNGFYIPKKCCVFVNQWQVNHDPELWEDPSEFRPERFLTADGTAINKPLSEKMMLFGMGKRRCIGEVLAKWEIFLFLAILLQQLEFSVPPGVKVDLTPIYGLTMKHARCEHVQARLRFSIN

[9] = biological target: T1, CYP2C9; experiment: Fluorescence signal from enzymatic metabolism over reagent addition background, CYP2C9; format: biochemical; conditions: OOMR and BOMCC vs MFC (FIG. 11)
Procedure: as §1

[10] = biological target: T3, CYP3A4; experiment: Fluorescence signal from enzymatic metabolism over reagent addition background, CYP3A4; format: biochemical; conditions: BOMR vs benzylresorufin (FIG. 8); BOMCC vs BFC (FIG. 9)
Procedure: as §1

[11] = biological target: T6, CYP 2B6 (Homo sapiens, UniProt P20813); experiment: Kinetic properties of fluorogenic substrates with CYP 2B6; format: biochemical; conditions: for Km: human, CYP 2B6 isozyme; for Km / v (1.25 uM) / v (10 uM) / kcat: — = too low to quantify; for v (1.25 uM): turnover rate at 1.25 uM substrate; for v (10 uM): turnover rate at 10 uM substrate
T6 sequence (P20813 1-491): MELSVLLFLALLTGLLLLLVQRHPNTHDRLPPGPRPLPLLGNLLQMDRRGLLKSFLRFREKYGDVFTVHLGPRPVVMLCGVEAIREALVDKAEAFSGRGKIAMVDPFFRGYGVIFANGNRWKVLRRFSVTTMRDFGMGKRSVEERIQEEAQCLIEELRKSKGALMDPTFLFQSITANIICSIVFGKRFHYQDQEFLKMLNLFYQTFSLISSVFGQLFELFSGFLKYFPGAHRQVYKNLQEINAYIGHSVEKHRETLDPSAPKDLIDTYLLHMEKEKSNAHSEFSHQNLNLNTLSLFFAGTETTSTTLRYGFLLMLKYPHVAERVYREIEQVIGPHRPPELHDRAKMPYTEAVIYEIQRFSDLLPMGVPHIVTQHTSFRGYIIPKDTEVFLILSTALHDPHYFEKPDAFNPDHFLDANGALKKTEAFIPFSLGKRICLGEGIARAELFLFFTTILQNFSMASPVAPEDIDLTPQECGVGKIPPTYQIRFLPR

[12] = biological target: T3, CYP3A4; experiment: in vitro; conditions: pH 8
Text: Data for a product fluorescence standard calibration curve was generated in the following manner.

[13] = biological target: T3, CYP3A4; experiment: Kinetics of BOMR and BR toward CYP 3A4 (FIG. 4); format: biochemical; conditions: BOMR versus BR
Text: Whichever of the four abstractable hydrogen atoms (designated H^1 and H^2 in this representation of BOMR) is removed in the initial reaction step, with reference to Reaction Scheme 1 of FIG. 1, the hydroxylation product will spontaneously decompose to the free resorufin dye. In addition, the benzyloxy group, attached to the carbon carrying the two hydrogens designated H^2, contributes an inductive electronic effect on that carbon, which can stabilize the radical formed during abstraction of one of the H^2 hydrogens by a cytochrome P450.
Optimization of assay conditions was, and is preferably, accomplished through statistically validated Design of Experiments methodologies, using the commercial software package “Design-Expert®” produced by Stat-Ease® Inc. The data shown in FIGS. 4 and 5 were obtained with initial optimization.

T4 sequence (P33261 whole entry): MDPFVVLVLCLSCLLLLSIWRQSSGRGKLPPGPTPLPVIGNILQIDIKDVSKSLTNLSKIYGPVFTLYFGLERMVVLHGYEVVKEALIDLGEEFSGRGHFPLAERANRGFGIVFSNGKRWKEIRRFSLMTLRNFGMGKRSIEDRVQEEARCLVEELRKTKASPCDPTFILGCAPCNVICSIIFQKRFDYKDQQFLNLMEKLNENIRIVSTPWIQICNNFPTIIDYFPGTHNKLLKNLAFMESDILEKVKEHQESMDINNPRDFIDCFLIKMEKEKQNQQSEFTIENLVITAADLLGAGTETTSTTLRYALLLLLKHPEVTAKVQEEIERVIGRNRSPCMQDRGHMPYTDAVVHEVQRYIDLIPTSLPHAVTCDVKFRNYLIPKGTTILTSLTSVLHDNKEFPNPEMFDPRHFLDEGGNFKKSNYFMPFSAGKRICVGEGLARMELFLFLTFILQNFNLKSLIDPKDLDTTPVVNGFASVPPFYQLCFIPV
T1 sequence (P11712 whole entry): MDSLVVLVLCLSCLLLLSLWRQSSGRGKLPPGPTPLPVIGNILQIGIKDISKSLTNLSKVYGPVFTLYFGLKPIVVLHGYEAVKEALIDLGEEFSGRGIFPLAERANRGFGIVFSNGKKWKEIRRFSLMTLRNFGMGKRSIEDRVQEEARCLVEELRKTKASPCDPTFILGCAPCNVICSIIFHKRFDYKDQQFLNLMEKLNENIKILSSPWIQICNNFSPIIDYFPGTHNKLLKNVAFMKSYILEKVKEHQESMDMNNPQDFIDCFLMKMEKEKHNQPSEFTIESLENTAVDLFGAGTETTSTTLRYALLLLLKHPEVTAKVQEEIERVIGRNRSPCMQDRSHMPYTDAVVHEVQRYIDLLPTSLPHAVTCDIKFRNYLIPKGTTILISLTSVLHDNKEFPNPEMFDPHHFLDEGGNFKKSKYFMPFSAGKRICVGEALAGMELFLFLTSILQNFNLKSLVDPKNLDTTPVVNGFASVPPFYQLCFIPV
T3 sequence (P08684 whole entry): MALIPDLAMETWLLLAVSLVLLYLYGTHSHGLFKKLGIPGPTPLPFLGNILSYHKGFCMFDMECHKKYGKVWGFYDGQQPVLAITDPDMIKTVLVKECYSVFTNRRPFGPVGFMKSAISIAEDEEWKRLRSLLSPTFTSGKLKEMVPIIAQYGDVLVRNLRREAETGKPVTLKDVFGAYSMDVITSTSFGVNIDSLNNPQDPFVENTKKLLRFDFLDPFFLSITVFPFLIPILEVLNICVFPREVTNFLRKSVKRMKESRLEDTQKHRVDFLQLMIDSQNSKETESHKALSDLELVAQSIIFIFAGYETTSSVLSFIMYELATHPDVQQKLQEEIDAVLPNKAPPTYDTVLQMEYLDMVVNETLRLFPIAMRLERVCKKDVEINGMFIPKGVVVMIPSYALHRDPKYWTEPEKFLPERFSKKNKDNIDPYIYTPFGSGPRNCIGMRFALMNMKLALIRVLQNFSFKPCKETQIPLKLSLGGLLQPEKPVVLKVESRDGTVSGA
T2 sequence (P10635 whole entry): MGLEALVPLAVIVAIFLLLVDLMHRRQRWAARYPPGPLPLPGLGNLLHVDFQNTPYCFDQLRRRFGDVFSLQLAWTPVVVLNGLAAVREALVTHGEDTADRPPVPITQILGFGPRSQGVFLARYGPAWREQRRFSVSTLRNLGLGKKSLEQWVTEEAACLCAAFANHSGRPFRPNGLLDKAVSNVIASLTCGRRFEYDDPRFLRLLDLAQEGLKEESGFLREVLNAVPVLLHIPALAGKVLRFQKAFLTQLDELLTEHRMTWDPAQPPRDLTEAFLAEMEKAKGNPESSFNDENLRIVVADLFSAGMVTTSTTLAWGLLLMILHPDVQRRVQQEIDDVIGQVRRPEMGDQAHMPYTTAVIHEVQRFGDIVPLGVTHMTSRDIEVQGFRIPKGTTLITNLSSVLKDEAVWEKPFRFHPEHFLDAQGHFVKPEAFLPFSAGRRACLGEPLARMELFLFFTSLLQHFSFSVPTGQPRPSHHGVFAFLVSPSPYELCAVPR

| type of kinetics [2] | v (1.25 uM) ([2]; — = too low to quantify) | v (10 uM) ([2]; — = too low to quantify) | type of kinetics [5] | v (1.25 uM) ([5]; — = too low to quantify) | v (10 uM) ([5]; — = too low to quantify) | type of kinetics [6] | v (1.25 uM) [6] | v (10 uM) [6] | signal to background versus prior commercially available substrate [9] | signal to background versus prior commercially available substrate [10] | type of kinetics [11] | Km [11] | v (1.25 uM) [11] | v (10 uM) [11] | kcat [11] | SMILES | further results |
| --- | --- | --- | --- | --- | --- | --- | --- | --- | --- | --- | --- | --- | --- | --- | --- | --- | --- |
|  |  |  |  |  |  | Michaelis-Menten | 0.34 min⁻¹ | 2.22 min⁻¹ |  |  |  |  |  |  |  | CCOCOc1ccc2cc(C#N)c(=O)oc2c1 [EOMCC] | signal to background versus prior commercially available substrate [7]: superior signal to background; type of kinetics [8]: Michaelis-Menten; v (1.25 uM) ([8]; turnover rate at 1.25 uM substrate): 1.77 min⁻¹; v (10 uM) ([8]; turnover rate at 10 uM substrate): 9.95 min⁻¹ |
| Michaelis-Menten | 0.04 min⁻¹ | 0.42 min⁻¹ | sigmoidal | 0.12 min⁻¹ | 0.98 min⁻¹ | Michaelis-Menten | 0.16 min⁻¹ | 0.68 min⁻¹ | superior signal to background | superior signal to background | Michaelis-Menten | 52 µM | 0.38 min⁻¹ | 3.05 min⁻¹ | 1.1 s⁻¹ | N#Cc1cc2ccc(OCOCc3ccccc3)cc2oc1=O [BOMCC, 7-Benzyloxymethyloxy-3-cyanocoumarin] | kcat ([5]; ( ) = from Michaelis-Menten fit, — = too low to quantify): (10.0) min-1 |

The remaining lines, values behind:

| SMILES | type of kinetics [2] | v (1.25 uM) ([2]; — = too low to quantify) | v (10 uM) ([2]; — = too low to quantify) | type of kinetics [5] | v (1.25 uM) ([5]; — = too low to quantify) | v (10 uM) ([5]; — = too low to quantify) | type of kinetics [6] | v (1.25 uM) [6] | v (10 uM) [6] | signal to background versus prior commercially available substrate [9] | signal to background versus prior commercially available substrate [10] | type of kinetics [11] | Km [11] | v (1.25 uM) [11] | v (10 uM) [11] | kcat [11] | further results |
| --- | --- | --- | --- | --- | --- | --- | --- | --- | --- | --- | --- | --- | --- | --- | --- | --- | --- |
| COc1ccc(COc2ccc3c(C(F)(F)F)cc(=O)oc3c2)cc1 [MOBFC] | Michaelis-Menten | 0.02 min⁻¹ | 0.188 min⁻¹ and 0.19 min⁻¹ | Michaelis-Menten | 0.0214 min⁻¹ and 0.02 min⁻¹ | 0.3453 min⁻¹ and 0.35 min⁻¹ |  |  |  |  |  |  |  |  |  |  | stability of substrate stock solutions [1]: stable; kcat ([2]; — = too low to quantify): 0.005 s⁻¹; signal to background versus prior commercially available substrate [3]: superior signal to background; type of kinetics [4]: Michaelis-Menten; v (1.25 uM) ([4]; turnover rate at 1.25 uM substrate, — = too low to quantify): 0.09 min⁻¹; v (10 uM) ([4]; turnover rate at 10 uM substrate, — = too low to quantify): 0.49 min⁻¹ |
| CCCCCCCCOCOc1ccc2nc3ccc(=O)cc-3oc2c1 [OOMR, Octyloxymethylresorufin] |  | 0.137 min⁻¹ | 0.31 min⁻¹ |  | 0.323 min⁻¹ | 0.601 min⁻¹ |  | 0.1 min⁻¹ | 0.13 min⁻¹ | superior signal to background |  |  |  |  |  |  |  |
| Clc1ccc(COC(Cn2ccnc2)c2ccc(Cl)cc2Cl)c(Cl)c1 (stereo not drawn) [miconazole] |  |  |  |  |  |  |  |  |  |  |  |  |  |  |  |  | inhibition at 1 h, 10 µM [12]: ~100% |
| O=c1ccc2nc3ccc(OCOCc4ccccc4)cc3oc-2c1 [BOMR, Benzyloxymethylresorufin] |  |  |  | Michaelis-Menten | 0.55 min⁻¹ | 0.88 min⁻¹ |  |  |  |  | superior signal to background | notMichaelis-Menten | 0.73 µM | 0.28 min⁻¹ | 0.71 min⁻¹ | 0.013 s⁻¹ | CYP 3A4 turnover rate relative to BR [13]: approximately five |
